{
  "source": "paper PMC9289467",
  "about": "“A Novel Multifunctional 5,6-Dimethoxy-Indanone-Chalcone-Carbamate Hybrids Alleviates Cognitive Decline in Alzheimer’s Disease by Dual Inhibition of Acetylcholinesterase and Inflammation” (Frontiers in Aging Neuroscience, 2022)",
  "key": {"recognition memory": {"system": "recognition memory", "experiment": "Spatial object location task", "type": "in vivo", "conditions": "at 24 h, vs APP/PS1 mice without treatment", "experimental": "(§1) APP/PS1 mice of ages 6 months were randomly divided into vehicle (APP/PS1, n = 10) and treatment groups (AP5, n = 10), which were intragastrically administered with AP5 (40 mg/kg) once daily for consecutive 5 months. AP5 was dissolved in distilled water containing 1% sodium carboxymethyl cellulose.\nTo investigate whether AP5 treatment plays a key role in cognition improvement of APP/PS1 mice models, the five different behavioral tests were sequentially carried out in the following order: open field, novel object recognition task, spatial object-location task, Y-maze, and Morris water maze (MWM). AP5 was also administered daily during the test periods. […]\nFor the spatial object location task (an object moved to a new location), mice first explored the two objects placed in two corners of the open field for 5 min in training period. After 1 h or 24 h, the mice received a 5 min retention trial with a new spatial configuration with an object moved from one corner to the opposite corner of the open field.The discrimination index was calculated and defined as: (time spent exploring the displaced object-time spent exploring nondisplaced objects) / total exploration time for the two objects during the 5 min retention trial. […]\nguided to platform and allowed to stay on it for 30 s. The time (escape latency) for each mouse to find the way and reach the target platform was analyzed. […]"}, "Aβ40 and Aβ42": {"system": "Aβ40 and Aβ42", "type": "in vivo, APP/PS1 mice", "conditions": "cortex and hippocampus; AP5 40 mg/kg once daily 5 months", "experimental": "as §1\nFor detecting the pathological soluble or insoluble Aβ in mice, sequential extractions were performed as follows: the half of right hippocampus and cortex from three groups were homogenized in TBS solution containing 5 mM EDTA, phosphatase inhibitor (P1050, Beyotime, Shanghai, China), and protease inhibitor cocktail (P1010, Beyotime) followed by centrifugation at 25,000g at 4°C for 1 h. The supernatant was collected as a TBS fraction and the resulting pellet was solubilized in 70% formic acid (FA), sonicated until the lysis buffer was clear, followed by centrifugation at 25,000g at 4°C for 1 h. The supernatant was collected as the FA fraction and neutralized (1:20) in a neutralization buffer (1 M tris base, 0.5 M Na2HPO4, 0.05% NaN3). Human Aβ40 and Aβ42 were determined by ELISA kits (E-EL-H0452c and E-EL-H0453c, Elabscience, Wuhan, China) in accordance with the manufacturer’s instructions. In addition, the levels of IL-1β (88-7013-88, Invitrogen), IL-6 (EK206HS-96, Multi sciences, HangZhou, China), and TNF-α (88-7324-88, Invitrogen) in TBS fraction were also determined by ELISA."}, "AChE": {"molecular_target": "T1, AChE (Mus musculus, UniProt P21836)", "T1 construct": "The brain samples were weighed, homogenized in PBS solution, and centrifuged; from tissue; host or cells: mouse brain (cortex and hippocampus) of APP/PS1 mice dosed with AP5", "T1 sequence (P21836 32-614)": "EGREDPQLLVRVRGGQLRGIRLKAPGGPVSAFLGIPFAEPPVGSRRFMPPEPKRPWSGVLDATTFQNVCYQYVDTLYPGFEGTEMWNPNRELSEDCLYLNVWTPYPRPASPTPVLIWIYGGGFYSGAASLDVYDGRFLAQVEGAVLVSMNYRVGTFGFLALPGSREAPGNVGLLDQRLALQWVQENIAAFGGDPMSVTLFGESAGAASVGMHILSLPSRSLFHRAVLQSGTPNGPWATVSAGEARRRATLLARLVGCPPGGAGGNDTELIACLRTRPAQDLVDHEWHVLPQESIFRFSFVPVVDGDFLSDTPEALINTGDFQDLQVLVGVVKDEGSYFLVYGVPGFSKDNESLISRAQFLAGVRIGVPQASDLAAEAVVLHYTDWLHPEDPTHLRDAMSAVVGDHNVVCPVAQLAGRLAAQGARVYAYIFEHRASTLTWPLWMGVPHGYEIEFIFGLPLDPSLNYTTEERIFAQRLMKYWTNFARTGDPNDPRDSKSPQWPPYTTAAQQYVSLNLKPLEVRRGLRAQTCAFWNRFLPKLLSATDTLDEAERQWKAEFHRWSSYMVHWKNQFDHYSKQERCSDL", "experiment": "Brain AChE activity, Amplex Red kit, APP/PS1 mice", "type": "in vivo", "conditions": "AP5 40 mg/kg intragastric once daily 5 months, vs APP/PS1 mice", "experimental": "as §1\nThe brain samples were weighed, homogenized in PBS solution, and centrifuged for 20 min at 25,000 g at 4°C. Amplex® Red acetylcholinesterase/acetylcholine assay kit (A12217, Thermo Fisher Scientific) was used to detect AChE activity and ACh levels in the supernatant in accordance with the manufacturer’s instructions.\nBriefly, for ACh assay, the reactions were started by adding 100 µL of the Amplex Red reagent, HRP, choline oxidase, AChE working solution to each microplate well containing the controls and samples. For AChE assay, detection cocktail solution containing ACh, Amplex Red, choline oxidase and horseradish peroxidase was added toeach well. Assay plates were incubated at room temperature for 30 min and protected from light, followed by detecting fluorescence of resorufin (λex = 544 nm, λem = 590 nm) in a fluorescence microplate reader.\nAfter deparaffinization and antigen retrieval, the sections were incubated with 0.3% hydrogen peroxide (H2O2) to inhibit endogenous peroxidase activity for 20 min and blocked by goat serum for 30 min at37°C. […]"}},
  "data": [
    {"smiles": "CCN(C)C(=O)Oc1cccc(/C=C2\\Cc3cc(OC)c(OC)cc3C2=O)c1", "note": "[AP5, (E)-3-((5,6-dimethoxy-1-oxo-1,3-dihydro-2H-inden-2-ylidene)-methyl)phenylethyl(methyl)carbamate]", "values": [
      {"measurement": "discrimination index, spatial object location", "setting": "recognition memory", "result": "significantly better"},
      {"measurement": "Aβ40 and Aβ42 in TBS-fraction", "setting": "Aβ40 and Aβ42", "result": "no marked differences"},
      {"measurement": "concentration of insoluble Aβ40 in FA-fractions", "setting": "Aβ40 and Aβ42", "result": "markedly decreased"},
      {"measurement": "concentration of insoluble Aβ42 in FA-fractions", "setting": "Aβ40 and Aβ42", "result": "markedly decreased"},
      {"measurement": "AChE activity in cortex and hippocampus", "setting": "AChE", "result": "decreased activity of AChE"}
    ]}
  ]
}
